# Experimental data published in patent publication US20250361209A1, “CRYSTAL FORMS OF N-(3-FLUOROPHENYL)-6-(6,7-DIMETHOXYQUINOLIN-4-OXY)-3,4-DIHYDROQUINOLINE-1(2H)-CARBOXAMIDE METHANESULFONATE AND PREPARATION METHOD THEREOF” (Shanghai Yi Feng Biotechnology Co., Ltd., priority 2023, published 2025).
# “Also recorded” adds a separate entry of the source.
# Assays:
# Type in all cases: physicochemical
# [1] = Test of influencing factors of crystalline forms A, B and C (total impurity)
# Description: Example 3 Test of Influencing Factors of Crystalline Forms A, B and C
# Hygroscopicity, DVS test = assay: Hygroscopicity, DVS test
# Method: The hygroscopicity of the anhydrate crystalline form C of methanesulfonate was evaluated by a DVS test at 0% RH-95% RH at 25° C.
# [2] = Solid state stability of the crystalline form C of methanesulfonate (HPLC purity, XRPD); settings: for change in HPLC purity: closed condition 60° C. 24 hours, open condition 25° C./60% RH 1 week or 4 weeks, methanesulfonate
# Method: The purity decreased from 99.22 area % to 98.80 area % after the crystalline form C was placed under an open condition in an environment of 40° C./75% RH for 4 weeks, with a 0.38% increase in the impurity at RRT of 0.81.
# [3] = High temperature (60° C.), 0 day, methanesulfonate
# [4] = High temperature (60° C.), 10 days, methanesulfonate
# [5] = Illumination (5000 + 500 lux), 0 day, methanesulfonate
# [6] = Illumination (5000 + 500 lux), 10 days, methanesulfonate
# [7] = Illumination (5000 + 500 lux), 30 days, methanesulfonate
# [8] = 60° C./closed condition/24 hours
# [9] = Start* (RH tests; stored at −20° C.)
# [10] = open condition 40° C./75% RH, 4 weeks
smiles,measurement,setting,value
"COc1cc2nccc(Oc3ccc4c(c3)CCCN4C(=O)Nc3cccc(F)c3)c2cc1OC [Crystalline form B, N-(3-fluorophenyl)-6-(6,7-dimethoxyquinolin-4-oxy)-3,4-dihydroquinoline-1(2H)-carboxamide methanesulfonate]",Total impurity %,"[1]; High humidity (RH75%), 0 day, methanesulfonate",0.86%
same,Total impurity %,"[1]; High humidity (RH75%), 5 days, methanesulfonate",1.03%
same,Total impurity %,"[1]; High humidity (RH75%), 10 days, methanesulfonate",1.09%
same,Total impurity %,"[1]; High humidity (RH75%), 30 days, methanesulfonate",1.12%
same,Total impurity %,[1]; [3],0.86%
same,Total impurity %,"[1]; High temperature (60° C.), 5 days, methanesulfonate",1.00%
same,Total impurity %,[1]; [4],0.98%
same,Total impurity %,[1]; [5],0.86%
same,Total impurity %,"[1]; Illumination (5000 + 500 lux), 5 days, methanesulfonate",0.94%
same,Total impurity %,[1]; [6],1.12%
same,Total impurity %,[1]; [7],1.33%
"COc1cc2nccc(Oc3ccc4c(c3)CCCN4C(=O)Nc3cccc(F)c3)c2cc1OC [Crystalline form C, N-(3-fluorophenyl)-6-(6,7-dimethoxyquinolin-4-oxy)-3,4-dihydroquinoline-1(2H)-carboxamide methanesulfonate]",hygroscopicity compared with other crystalline forms,"Hygroscopicity, DVS test",better than that of the crystalline form A and the crystalline form B
same,hygroscopicity classification,"Hygroscopicity, DVS test; DVS 0% RH-95% RH at 25° C., classification per Chinese Pharmacopoeia 2015",slight hygroscopicity
same,hygroscopic weight gain,"Hygroscopicity, DVS test; DVS, 25° C./80% RH",about 0.46%
same,crystalline form after the DVS test (XRPD),"Hygroscopicity, DVS test; after DVS test, listed as crystalline form C of methanesulfonate, methanesulfonate",no change in crystalline form; also recorded: remained unchanged
same,solid state stability compared with other crystalline forms,[2],better than that of the crystalline form A and the crystalline form B
same,"Purity, area %, peak 1 RRT 0.42","[2]; 25° C./60% RH open, 1 week*",0.02 area %
same,"Purity, area %, peak 2 RRT 0.60-0.61","[2]; 25° C./60% RH open, 1 week*",0.04 area %
same,"Purity, area %, peak 3 RRT 0.81","[2]; 25° C./60% RH open, 1 week*",0.55 area %
same,"Purity, area %, peak 4 RRT 0.93","[2]; 25° C./60% RH open, 1 week*",0.05 area %
same,"Purity, area %, peak 5 RRT 1.00 (main peak)","[2]; 25° C./60% RH open, 1 week*",99.15 area %
same,"Purity, area %, peak 6 RRT 1.10","[2]; 25° C./60% RH open, 1 week*",0.14 area %
same,"Purity, area %, peak 7 RRT 1.27","[2]; 25° C./60% RH open, 1 week*",0.06 area %
same,"Purity, area %, peak 1 RRT 0.42","[2]; 25° C./60% RH open, 4 weeks",0.02 area %
same,"Purity, area %, peak 2 RRT 0.60-0.61","[2]; 25° C./60% RH open, 4 weeks",0.05 area %
same,"Purity, area %, peak 3 RRT 0.81","[2]; 25° C./60% RH open, 4 weeks",0.54 area %
same,"Purity, area %, peak 4 RRT 0.93","[2]; 25° C./60% RH open, 4 weeks",0.05 area %
same,"Purity, area %, peak 5 RRT 1.00 (main peak)","[2]; 25° C./60% RH open, 4 weeks",99.14 area %
same,"Purity, area %, peak 6 RRT 1.10","[2]; 25° C./60% RH open, 4 weeks",0.14 area %
same,"Purity, area %, peak 7 RRT 1.27","[2]; 25° C./60% RH open, 4 weeks",0.06 area %
same,"Purity, area %, peak 1 RRT 0.42","[2]; 40° C./75% RH open, 1 week*",0.03 area %
same,"Purity, area %, peak 2 RRT 0.60-0.61","[2]; 40° C./75% RH open, 1 week*",0.04 area %
same,"Purity, area %, peak 3 RRT 0.81","[2]; 40° C./75% RH open, 1 week*",0.69 area %
same,"Purity, area %, peak 4 RRT 0.93","[2]; 40° C./75% RH open, 1 week*",0.04 area %
same,"Purity, area %, peak 5 RRT 1.00 (main peak)","[2]; 40° C./75% RH open, 1 week*",99.02 area %
same,"Purity, area %, peak 6 RRT 1.10","[2]; 40° C./75% RH open, 1 week*",0.13 area %
same,"Purity, area %, peak 7 RRT 1.27","[2]; 40° C./75% RH open, 1 week*",0.06 area %
same,"Purity, area %, peak 1 RRT 0.42","[2]; 40° C./75% RH open, 4 weeks",0.03 area %
same,"Purity, area %, peak 2 RRT 0.60-0.61","[2]; 40° C./75% RH open, 4 weeks",0.08 area %
same,"Purity, area %, peak 3 RRT 0.81","[2]; 40° C./75% RH open, 4 weeks",0.86 area %
same,"Purity, area %, peak 4 RRT 0.93","[2]; 40° C./75% RH open, 4 weeks",0.05 area %
same,"Purity, area %, peak 5 RRT 1.00 (main peak)","[2]; 40° C./75% RH open, 4 weeks",98.80 area %
same,"Purity, area %, peak 6 RRT 1.10","[2]; 40° C./75% RH open, 4 weeks",0.13 area %
same,"Purity, area %, peak 7 RRT 1.27","[2]; 40° C./75% RH open, 4 weeks",0.05 area %
same,"Purity, area %, peak 1 RRT 0.42",[2]; [8],0.03 area %
same,"Purity, area %, peak 2 RRT 0.60-0.61",[2]; [8],0.05 area %
same,"Purity, area %, peak 3 RRT 0.81",[2]; [8],0.55 area %
same,"Purity, area %, peak 4 RRT 0.93",[2]; [8],0.05 area %
same,"Purity, area %, peak 5 RRT 1.00 (main peak)",[2]; [8],99.12 area %
same,"Purity, area %, peak 6 RRT 1.10",[2]; [8],0.15 area %
same,"Purity, area %, peak 7 RRT 1.27",[2]; [8],0.05 area %
same,"Purity, area %, peak 1 RRT 0.42",[2]; Start (60° C. closed test),0.03 area %
same,"Purity, area %, peak 2 RRT 0.60-0.61",[2]; Start (60° C. closed test),0.05 area %
same,"Purity, area %, peak 3 RRT 0.81",[2]; Start (60° C. closed test),0.54 area %
same,"Purity, area %, peak 4 RRT 0.93",[2]; Start (60° C. closed test),0.05 area %
same,"Purity, area %, peak 5 RRT 1.00 (main peak)",[2]; Start (60° C. closed test),99.13 area %
same,"Purity, area %, peak 6 RRT 1.10",[2]; Start (60° C. closed test),0.15 area %
same,"Purity, area %, peak 7 RRT 1.27",[2]; Start (60° C. closed test),0.06 area %
same,"Purity, area %, peak 1 RRT 0.42",[2]; [9],0.02 area %
same,"Purity, area %, peak 2 RRT 0.60-0.61",[2]; [9],0.03 area %
same,"Purity, area %, peak 3 RRT 0.81",[2]; [9],0.48 area %
same,"Purity, area %, peak 4 RRT 0.93",[2]; [9],0.05 area %
same,"Purity, area %, peak 5 RRT 1.00 (main peak)",[2]; [9],99.22 area %
same,"Purity, area %, peak 6 RRT 1.10",[2]; [9],0.14 area %
same,"Purity, area %, peak 7 RRT 1.27",[2]; [9],0.06 area %
same,crystalline form after the stability test (XRPD),[2]; after stability test,no change in crystalline form
same,change in HPLC purity,[2]; listed as crystalline form C of methanesulfonate,no significant decrease
same,change in HPLC purity,[2],No significant change
same,decrease in purity,[2]; [10],0.42 area %
same,increase in the impurity at RRT of 0.81,[2]; [10],0.38%
same,Total impurity %,"[1]; High humidity (RH92.5%), 0 day",0.66%
same,Total impurity %,"[1]; High humidity (RH92.5%), 10 days",0.75%
same,Total impurity %,"[1]; High humidity (RH92.5%), 30 days",0.73%
same,Total impurity %,[1]; [3],0.66%
same,Total impurity %,[1]; [4],0.81%
same,Total impurity %,"[1]; High temperature (60° C.), 30 days",0.85%
same,Total impurity %,[1]; [5],0.66%
same,Total impurity %,[1]; [6],0.83%
same,Total impurity %,[1]; [7],0.89%
